Measurements published in patent US20250098679A1, “HERBICIDAL PYRIDONE DERIVATIVES” (SYNGENTA CROP PROTECTION AG, priority 2021, published 2025).

Legend:
Type in all cases: in vivo
Conditions in all cases: evaluated after 13 days
[1] = tested on: Amaranthus palmeri (AMAPA); test: Post-emergence Test, Amaranthus palmeri (AMAPA); set-up: key: 5=81-100%, 4=61-80%, 3=41-60%, 2=21-40%, 1=0-20% damage
Outline: (§1)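 Scores are percentage plant damage on a 1–5 scale (1=0-20%, 2=21-40%, 3=41-60%, 4=61-80%, 5=81-100%), read 13 days after treatment. Pots received a spray at 1000 g/ha unless otherwise stated, formulated in acetone/water (50:50) containing 0.5% Tween 20.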

[2] = tested on: Zea mays (ZEAMX); test: Post-emergence Test, Zea mays (ZEAMX); set-up: key to percentage damage caused to the plant, ZEAMX (five-point scale): 5=81-100%, 4=61-80%, 3=41-60%, 2=21-40%, 1=0-20% damage
Outline: as §1

[3] = tested on: Setaria faberi (SETFA); test: Post-emergence Test, Setaria faberi (SETFA); set-up: key to percentage damage caused to the plant, SETFA (five-point scale): 5=81-100%, 4=61-80%, 3=41-60%, 2=21-40%, 1=0-20% damage
Outline: as §1

[4] = tested on: Ipomoea hederacea (IPOHE); test: Post-emergence Test, Ipomoea hederacea (IPOHE); set-up: key to percentage damage caused to the plant, IPOHE (five-point scale): 5=81-100%, 4=61-80%, 3=41-60%, 2=21-40%, 1=0-20% damage
Outline: as §1

[5] = tested on: Echinochloa crus-galli (ECHCG); test: Post-emergence Test, Echinochloa crus-galli (ECHCG); set-up: key to percentage damage caused to the plant, ECHCG (five-point scale): 5=81-100%, 4=61-80%, 3=41-60%, 2=21-40%, 1=0-20% damage
Outline: as §1

[6] = tested on: Amaranthus retoflexus (AMARE); test: Post-emergence Test, Amaranthus retoflexus (AMARE); set-up: key to percentage damage caused to the plant, AMARE (five-point scale): 5=81-100%, 4=61-80%, 3=41-60%, 2=21-40%, 1=0-20% damage
Outline: as §1

| SMILES | percentage damage caused to the plant, AMAPA (five-point scale) ([1]; 1000 g/ha) | percentage damage caused to the plant, ZEAMX (five-point scale) ([2]; 1000 g/ha) | percentage damage caused to the plant, SETFA (five-point scale) ([3]; 1000 g/ha) | percentage damage caused to the plant, IPOHE (five-point scale) ([4]; 1000 g/ha) | percentage damage caused to the plant, ECHCG (five-point scale) ([5]; 1000 g/ha) | percentage damage caused to the plant, AMARE (five-point scale) ([6]; 1000 g/ha) | percentage damage caused to the plant, AMAPA (five-point scale) ([1]; 250 g/Ha) | percentage damage caused to the plant, ZEAMX (five-point scale) ([2]; 250 g/Ha) | percentage damage caused to the plant, SETFA (five-point scale) ([3]; 250 g/Ha) | percentage damage caused to the plant, IPOHE (five-point scale) ([4]; 250 g/Ha) | percentage damage caused to the plant, ECHCG (five-point scale) ([5]; 250 g/Ha) | percentage damage caused to the plant, AMARE (five-point scale) ([6]; 250 g/Ha) |
| --- | --- | --- | --- | --- | --- | --- | --- | --- | --- | --- | --- | --- |
| CCn1c(Cn2cc(S(C)(=O)=O)cn2)cc(=O)c(C(=O)O)c1-c1ccc(Cl)c(Cl)c1 [Compound 90, 2-(3,4-dichlorophenyl)-1-ethyl-6-[(4-methylsulfonylpyrazol-1-yl)methyl]-4-oxo-pyridine-3-carboxylic acid] | 1 (1=0-20%) | 0 | 0 | 0 | 1 (1=0-20%) | 1 (1=0-20%) | – | – | – | – | – | – |
| CCn1c(Cn2cnc(C(=O)OC)c2C(=O)OC)cc(=O)c(C(=O)O)c1-c1ccc(Cl)c(Cl)c1 [Compound 111, 6-[[4,5-bis(methoxycarbonyl)imidazol-1-yl]methyl]-2-(3,4-dichlorophenyl)-1-ethyl-4-oxo-pyridine-3-carboxylic acid] | 1 (1=0-20%) | 0 | 1 (1=0-20%) | 0 | 2 (2=21-40%) | 1 (1=0-20%) | – | – | – | – | – | – |
| CCOC(=O)c1c(-c2ccc(Cl)c(Cl)c2)n(CC)c(Cn2ccnc2)c(Br)c1=O [Compound 24, ethyl 5-bromo-2-(3,4-dichlorophenyl)-1-ethyl-6-(imidazol-1-ylmethyl)-4-oxo-pyridine-3-carboxylate] | 1 (1=0-20%) | 3 (3=41-60%) | 1 (1=0-20%) | 1 (1=0-20%) | 1 (1=0-20%) | 1 (1=0-20%) | 1 (1=0-20%) | 1 (1=0-20%) | 1 (1=0-20%) | 2 (2=21-40%) | 1 (1=0-20%) | 1 (1=0-20%) |
| CCn1c(Cn2ccc(O)n2)cc(=O)c(C(=O)O)c1-c1ccc(Cl)c(Cl)c1 [Compound 167, 2-(3,4-dichlorophenyl)-1-ethyl-6-[(3-hydroxypyrazol-1-yl)methyl]-4-oxo-pyridine-3-carboxylic acid] | 1 (1=0-20%) | 0 | 0 | 0 | 0 | 0 | – | – | – | – | – | – |
| CCn1c(Cn2cnc(Cl)c2Cl)cc(=O)c(C(=O)O)c1-c1ccc(Cl)c(Cl)c1 [Compound 126, 6-[(4,5-dichloroimidazol-1-yl)methyl]-2-(3,4-dichlorophenyl)-1-ethyl-4-oxo-pyridine-3-carboxylic acid] | 1 (1=0-20%) | 1 (1=0-20%) | 0 | 0 | 0 | 0 | 0 | 0 | 0 | 0 | 1 (1=0-20%) | 0 |
| CCOC(=O)c1c(-c2ccc(Cl)c(Cl)c2)n(CC)c(Cn2nccc2Cl)cc1=O [Compound 67, ethyl 6-[(5-chloropyrazolo-1-yl)methyl]-2-(3,4-dichlorophenyl)-1-ethyl-4-oxo-pyridine-3-carboxylate] | – | – | – | – | – | – | 1 (1=0-20%) | 0 | 0 | 0 | 0 | 1 (1=0-20%) |
